In PMC3265452 (PLoS Neglected Tropical Diseases, 2012):
Structures can show the parent of a compound that is named as a salt.

Molecular target: AaDOP2 (Aedes aegypti, UniProt H6D5H2)
Experiment: AaDOP2 antagonist screen of the LOPAC1280 library (HEK-CRELuc-Aadop2 cells, luminescence)
Type: cell-based
Conditions: not given

Sequence of AaDOP2 (H6D5H2 1-476): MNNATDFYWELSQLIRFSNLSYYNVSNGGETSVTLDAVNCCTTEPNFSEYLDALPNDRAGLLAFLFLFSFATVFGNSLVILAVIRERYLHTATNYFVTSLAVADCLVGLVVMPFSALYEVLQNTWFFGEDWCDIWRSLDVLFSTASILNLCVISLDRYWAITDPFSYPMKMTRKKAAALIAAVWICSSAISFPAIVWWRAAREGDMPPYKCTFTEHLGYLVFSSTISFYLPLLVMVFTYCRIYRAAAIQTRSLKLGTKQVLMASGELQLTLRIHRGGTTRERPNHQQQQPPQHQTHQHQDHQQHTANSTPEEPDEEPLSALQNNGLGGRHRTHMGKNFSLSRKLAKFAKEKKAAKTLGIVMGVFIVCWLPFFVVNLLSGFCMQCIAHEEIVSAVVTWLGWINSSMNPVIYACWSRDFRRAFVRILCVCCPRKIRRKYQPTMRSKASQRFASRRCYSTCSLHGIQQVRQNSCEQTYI

Row | SMILES | Compound effect (percent receptor signaling in presence of test compound, relative lux units relative to the SCH23390 control)
1 | O=c1ccc2ccc(O)c(O)c2o1 [Compound 393, Daphnetin] | 74
2 | CCC(=O)N1CCN(C(=O)c2ccccc2)CC1 [Compound 394, DM 235] | 101
3 | CC1(C)CCC=[N+]1[O-] [Compound 395, 5,5-Dimethyl-1-pyrroline-N-oxide] | 94
4 | Nc1ccn([C@H]2CC[C@@H](CO)O2)c(=O)n1 [Compound 396, 2',3'-dideoxycytidine] | 102
5 | O=c1c2ccccc2[nH]c(=S)n1CCN1CCC(=C(c2ccc(F)cc2)c2ccc(F)cc2)CC1 [Compound 397, Diacylglycerol Kinase Inhibitor II] | 74
6 | CNCCc1ccc(O)c(O)c1.Cl [Compound 399, N-Methyldopamine hydrochloride] | 94
7 | C[N+]1(C)CCN(c2ccccc2)CC1.[I-] [Compound 400, 1,1-Dimethyl-4-phenyl-piperazinium iodide] | 87
8 | CC(C)N(CCC(C(N)=O)(c1ccccc1)c1ccccn1)C(C)C (stereo not shown) [Compound 402, Disopyramide phosphate] | 104
9 | CN(C)[C@@H]1C(O)=C(C(N)=O)C(=O)[C@@]2(O)C(O)=C3C(=O)c4c(O)ccc(Cl)c4[C@@H](O)[C@H]3C[C@@H]12 [Compound 403, Demeclocycline hydrochloride] | 84
10 | O=C(O)Cc1ccccc1Nc1c(Cl)cccc1Cl [Compound 405, Diclofenac sodium] | 94
11 | c1ccc(-c2ccccn2)nc1 [Compound 408, 2,2'-Bipyridyl] | 94
12 | CC(C)N(CCC(C(N)=O)(c1ccccc1)c1ccccn1)C(C)C (stereo not shown) [Compound 409, Disopyramide] | 95
13 | O=c1c(-c2ccc(O)cc2)coc2cc(O)ccc12 [Compound 410, Daidzein] | 47
14 | O=c1oc(Cl)c(Cl)c2ccccc12 [Compound 413, 3,4-Dichloroisocoumarin] | 96
15 | Clc1ccc(N2C[C@H]3CC[C@@H](C2)N3)nn1 [Compound 414, DBO-83] | 100
16 | CN(N=O)c1cc(O)ccc1O [Compound 417, Dephostatin] | 111
17 | Nc1nccc2c1ncn2[C@@H]1O[C@H](CO)[C@@H](O)[C@H]1O [Compound 419, 3-deazaadenosine] | 59
18 | C#C[C@]1(O)CC[C@H]2[C@@H]3CCC4=Cc5oncc5C[C@]4(C)[C@H]3CC[C@@]21C [Compound 421, Danazol] | 83
19 | CCCCCCN(CCCCCC)C(=O)Cc1c(-c2ccc(F)cc2)[nH]c2ccccc12 [Compound 422, N,N-Dihexyl-2-(4-fluorophenyl)indole-3-acetamide] | 93
20 | Oc1c2ccccc2c2c3c(cccc13)N=N2 [Compound 424, SP600125] | 101
21 | CC1=NS(=O)(=O)c2cc(Cl)ccc2N1 [Compound 425, Diazoxide] | 115

Row | SMILES | Compound effect (percent receptor signaling in presence of test compound, relative lux units relative to the SCH23390 control)
22 | O=C(O)Cc1ccc(O)c(O)c1 [Compound 426, 3,4-Dihydroxyphenylacetic acid] | 120
23 | O=C1CN(/N=C/c2ccc(-c3ccc([N+](=O)[O-])cc3)o2)C(O)=N1 [Compound 427, Dantrolene sodium] | 100
24 | CCn1c(=O)[nH]c2cc(Cl)c(Cl)cc21 [Compound 428, DCEBIO] | 67
25 | OC[C@H]1NC[C@H](O)[C@@H](O)[C@@H]1O [Compound 429, 1-Deoxynojirimycin hydrochloride] | 116
26 | N[C@@H](Cc1ccc(O)c(O)c1)C(=O)O [Compound 430, L-3,4-Dihydroxyphenylalanine] | 91
27 | COc1cc2nc(N3CCN(C(=O)C4COc5ccccc5O4)CC3)nc(N)c2cc1OC (stereo not shown) [Compound 432, Doxazosin mesylate] | 86
28 | C[C@H]1c2cccc(O)c2C(=O)C2=C(O)[C@]3(O)C(=O)C(C(N)=O)=C(O)[C@@H](N(C)C)[C@@H]3[C@@H](O)[C@@H]21 [Compound 433, Doxycycline hydrochloride] | 103
29 | Br.NC1CCc2cc(O)c(O)cc2C1 (stereo not shown) [Compound 434, 6,7-ADTN hydrobromide] | 118
30 | CCCN(CCC)CCc1ccc(O)c(O)c1 [Compound 439, Dipropyldopamine hydrobromide] | 106
31 | Br.C=CCN1CCc2cccc3c2[C@H]1Cc1ccc(O)c(O)c1-3 [Compound 441, R(-)-N-Allylnorapomorphine hydrobromide] | 87
32 | CCn1cc(C(=O)O)c(=O)c2ccc(Cc3ccccc3)nc21 [Compound 442, Amfonelic acid] | 96
33 | O=C1NC(c2cccc([N+](=O)[O-])c2)=CCN1c1ccccc1O [Compound 443, Icilin] | 87
34 | CCCn1c(=O)c2c(ncn2C)n(CCC)c1=O [Compound 450, 1,3-Dipropyl-7-methylxanthine] | 123
35 | CC(C)c1cccc(C(C)C)c1O [Compound 452, Propofol] | 94
36 | CN1CC[C@@]23CCCC[C@@H]2[C@@H]1Cc1ccc(O)cc13.O=C(O)C(O)C(O)C(=O)O [Compound 453, Dextrorphan D-tartrate] | 107
37 | COc1cc(OC)cc(C(CNc2ncnc3c2ncn3[C@@H]2O[C@H](CO)[C@@H](O)[C@H]2O)c2ccccc2C)c1 (stereo partly shown) [Compound 455, DPMA] | 110
38 | O=[N+]([O-])c1cc(O)c(O)c([N+](=O)[O-])c1 [Compound 456, 3,5-Dinitrocatechol] | 95
39 | CCCN(CCC)CCc1c[nH]c2ccc(C(N)=O)cc12.O=C(O)/C=C\C(=O)O [Compound 457, N,N-Dipropyl-5-carboxamidotryptamine maleate] | 106
40 | O=C1N=c2cc(Cl)c(Cl)cc2=NC1=O [Compound 458, 6,7-Dichloroquinoxaline-2,3-dione] | 129
41 | C#CCn1c(=O)c2c(ncn2C)n(C)c1=O [Compound 459, 3,7-Dimethyl-I-propargylxanthine] | 101

Same assay, conditions: 10 µM compound, 300 nM dopamine, 2 hr

Row | SMILES | % of the SCH23390 effect (percent inhibition of receptor response relative to the SCH23390 control) [%]
42 | Cc1nc2sccn2c(=O)c1CCN1CCC(=C(c2ccccc2)c2ccc(F)cc2)CC1 [Compound 401, Diacylglycerol kinase inhibitor I] | 90

Same assay, conditions: 10 µM compound, 300 nM dopamine, 2 hr; hit = compound effect <20

Row | SMILES | Compound effect (percent receptor signaling in presence of test compound, relative lux units relative to the SCH23390 control) [%]
43 | Cc1nc2sccn2c(=O)c1CCN1CCC(=C(c2ccccc2)c2ccc(F)cc2)CC1 [Compound 401, Diacylglycerol kinase inhibitor I] | 10
44 | O=C(O)CN(CCN(CC(=O)O)CC(=O)O)CCN(CC(=O)O)CC(=O)O [Compound 404, Diethylenetriaminepentaacetic acid] | 118
45 | COc1c2c(nc3ccccc13)OC(C(C)(O)CO)C2 (stereo not shown) [Compound 411, Dubinidine] | 100
46 | CCCCCCCCCCC/C=C\C(C)(C)/C=C\CCCC(=O)O [Compound 415, 7,7-Dimethyl-(5Z,8Z)-eicosadienoic acid] | 82
47 | N/C(=N\C(=O)c1nc(Cl)c(N)nc1N)NCc1ccc(Cl)c(Cl)c1 [Compound 418, 3',4'-Dichlorobenzamil] | 73
48 | C/C=C1\C(=O)C[C@H]2[C@@H]3CCC4=CC(=O)CC[C@]4(C)[C@H]3CC[C@]12C [Compound 420, (Z)-Gugglesterone] | 91
49 | Br.CN1CCc2cc(O)cc3c2[C@H]1Cc1ccc(O)c(O)c1-3 [Compound 437, R(-)-2,10,11-Trihydroxyaporphine hybrobromide] | 71
50 | Cl.Cl.Fc1ccc(C(OCCN2CCN(CCCc3ccccc3)CC2)c2ccc(F)cc2)cc1 [Compound 445, GBR-12909 dihydrochloride] | 59
51 | C[N+]1(C)CCC(OC(=O)C(c2ccccc2)c2ccccc2)CC1.[I-] [Compound 449, 4-DAMP methiodide] | 97
52 | CCCCC1(C2CCCC2)Cc2cc(OCC(=O)O)c(Cl)c(Cl)c2C1=O (stereo not drawn) [Compound 454, R(+)-Butylindazone] | 97
